# Columns and labels:
# [1] = system: supercoiled circular φX174 RFI DNA; experiment: Single-strand DNA cleavage at various complex concentrations, 350 nm UV, agarose gel; assay type: biochemical; details: for % form I (supercoiled circular DNA) / % form II (cleaved DNA) / (% form II)/(% form I): pH 6.0
# Experimental: The mixture was irradiated with 350 nm UV light (32-W) for 2.0 h at room temperature. After adding a gel-loading buffer (0.25% bromophenol blue, 0.25% xylene cyanol, and 30% glycerol), the reaction mixture was loaded on a 1% agarose gel, followed by ethidium bromide staining. The gel was visualized by a 312-nm UV transilluminator and photographed by a FB-PDC-34 camera. Supercoiled circular DNA (form I) and cleaved DNA (form II) were clearly seen from the gel.
# [2] = system: 160-bp dsDNA fragment from the 501-660 fragment of pBR322 DNA; experiment: Site-specific DNA cleavage of 5'-32P-labeled fragment, polyacrylamide gel against Maxam-Gilbert markers; assay type: biochemical; details: complex 20-100 μM, 350-nm UV
# Experimental: A 160-bp dsDNA fragment was prepared from the 501-660 fragment of pBR322 DNA. It was amplified by the polymerase chain reaction (Bailly & Waring (1995) J. Am. Chem. Soc. 117:7311; Bailly et al. (1993) J. Am. Chem. Soc. 115:3784; and Sayers & Waring (1993) Biochemistry 32:9094), and labeled at the 5′-terminus with γ-[^32P]-ATP and T4 polynucleotide kinase. A reaction mixture containing a 5′-terminus labeled ^32P-DNA solution, a phosphate buffer (0.10 M, pH 6.0), and complex 1 (20-100 μM) in a Pyrex vial was preincubated at 37° C. for 30 min. The reaction mixture was irradiated with 350-nm UV light under aerobic conditions for 2.0 h at room temperature. The bound metal complexes on DNA fragments were removed by using 0.30 N NaCN (pH=11) at 37° C. for 8.0 h (Schwartz et al. (1990) J. Am. Chem. Soc. 112:3673; and Zou et al. (1994) Biochemistry 33:5404). The reaction mixture was then quenched with either a gel-loading buffer or 95% ethanol. […] The samples and the Maxam-Gilbert markers were analyzed using 10% polyacrylamide/8.0 M urea gel. […] Quantitation of relative intensities of DNA fragments was performed using a Microtek scanner and NIH 1.60 image program.
# The detected DNA fragments were compared with Maxam-Gilbert markers on an autoradiogram, and quantitated by a computer-assisted program.
# [3] = system: supercoiled circular φX174 RFI DNA; experiment: Single-strand DNA cleavage at various pH's, 350 nm UV, agarose gel; assay type: biochemical; details: complex 5.0 μM
# Experimental: Cleavage at Various pH's: A reaction mixture (10 μL) containing supercoiled circular φX174 RFI DNA stock solution (50 μM/base pair), complex 1 (5.0 μM), and a phosphate buffer (0.10 M, pH 5.0, 6.0, 7.0, and 8.0) in a Pyrex vial was preincubated at 37° C. The reaction mixture was then irradiated with 350 nm UV light (32-W) for 2.0 h at room temperature. After adding a gel-loading buffer (0.25% bomophenol blue, 0.25% xylene cyanol, and 30% glycerol), the reaction mixture was loaded on a 1% agarose gel, followed by ethidium bromide staining. The gel was visualized by a 312-nm UV transilluminator and photographed by a FB-PDC-34 camera. Supercoiled circular DNA and cleaved DNA were clearly seen from the gel.
# 2′-deoxyguanosine = experiment: Binding and cleaving mechanism with 2'-deoxyguanosine, LC-mass
# Experimental: As a comparison, a reaction involving 2′-deoxyguanosine and complex 1 was carried out. […] As a result, cleavage at a guanine site required assistance from an external base (e.g., piperidine). In another experiment, an excess of complex 1 was added to a 2′-deoxyguanosine solution, followed by piperidine treatment. An intermediate was detected, at a yield of 42%, with a signal at 1063.9 for (M+H^+) as analyzed by an electron spray ionization detector in LC-mass chromatogram. The intermediate was able to give a cyclization product, at a yield of 80%, with a signal at 792.0 for (M+H^+) upon 350-nm UV light irradiation, but not in the dark. The scheme below depicts the just-described reaction: [drawing 6]
# [4] = system: double helical oligonucleotide d(ATAT)2; experiment: DNA binding and cleaving mechanism with oligonucleotide, LC-mass; details: 1:1, pH 6.0, in the dark 2.0 h
# Experimental: A double helical oligonucleotide d(ATAT)2 was prepared and added to a phosphate buffer solution (pH=6.0) containing complex 1 (1:1). The solution was kept in the dark for 2.0 h. An intermediate was detected, at a yield of 57%, with a signal at 650.1 for (M+H^+) as analyzed by an electron spray ionization detector in LC-mass chromatogram. Then, the solution was irradiated with 350 nm-UV light for 2.0 h at room temperature. A product was detected with a signal at 456.1 for (M+H^+). […] Then an intramolecular cyclization took place to remove the DMSO and to form a covalent bond between the N-7 nitrogen atom and the platinum in complex 1, resulting in the oligonucleotide cleavage.
# [5] = complex 1.0 μM, 350 nm UV 2.0 h
# [6] = complex 2.5 μM, 350 nm UV 2.0 h
# [7] = complex 5.0 μM, 350 nm UV 2.0 h
compound,measurement,setting,value
"C[S+](C)(=O)[Pt]1([Cl])[O][n+]2ccccc2[S]1 (centres unmarked) [complex 1, PtCl(DMSO)[η^2—C5H4SN(O)]]",% form I (supercoiled circular DNA),[1]; [5],37%
same,% form II (cleaved DNA),[1]; [5],63%
same,(% form II)/(% form I),[1]; [5],1.7
same,% form I (supercoiled circular DNA),[1]; [6],20%
same,% form II (cleaved DNA),[1]; [6],80%
same,(% form II)/(% form I),[1]; [6],4.0
same,% form I (supercoiled circular DNA),[1]; [7],7.1%
same,% form II (cleaved DNA),[1]; [7],93%
same,(% form II)/(% form I),[1]; [7],13
same,% form I (supercoiled circular DNA),"[1]; complex 500 μM, in the dark",93%
same,% form II (cleaved DNA),"[1]; complex 500 μM, in the dark",7.0%
same,(% form II)/(% form I),"[1]; complex 500 μM, in the dark",0.070
same,DNA cleaving activity,[1]; concentration as low as 1.0 μM,very strong DNA cleaving activity
same,cleavage of single-strand DNA,[1]; in the dark,did not occur
same,site of DNA cleavage,[2]; with hot piperidine treatment,cleaved DNA at purine residues
same,site of DNA cleavage,[2]; without piperidine treatment,at adenine residues
same,DNA forms seen on gel,"[3]; pH 5.0, 6.0, or 7.0, 350 nm UV 2.0 h",only cleaved DNA was observed
same,DNA forms seen on gel,"[3]; pH 8.0, 350 nm UV 2.0 h",both supercoiled circular DNA and cleaved DNA were observed
same,binding site on nucleic acid,2′-deoxyguanosine,bound to the C-2 amino on a guanine
same,yield of cyclization product from intermediate,"2′-deoxyguanosine; 350-nm UV light irradiation, not in the dark",80%
same,yield of complex-bound intermediate,"2′-deoxyguanosine; excess of complex 1, piperidine treatment",42%
same,binding site on nucleic acid,[4],bound to the C-6 amino on an adenine
same,yield of complex-bound intermediate,[4],57%
